Counter-ions that a name gives are not always drawn.

The first assay has as its system Acinetobacter baumannii ATCC17961. Briefly: Antimicrobial susceptibility testing: 90% growth inhibitory concentration (IC90) determination in Iso-Sensitest broth, OD600 growth. Format: cell-based. The following applies: Acinetobacter baumannii, ATCC17961, 16 h, read-out: A. baumannii ATCC 17961 IC90 (uM), strain ATCC 17961, OD600 growth over 16 h. In short, it runs like this: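 Growth monitored at 600 nm every 20 min for 16 h at 35±2 °C, inoculum ~5×10^(5) CFU/ml in Iso-Sensitest medium. Compounds in 10-point twofold series, e.g. 50 to 0.097 μM final; 90% inhibitory concentration taken from log-phase growth.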
What is called IC90 is the concentration needed for an effect of 90%. As to `CNC(=O)c1ccc(Nc2nccn3c(-c4cn(CCN(C)C)nc4C(F)(F)F)cnc23)cc1Cl` [Example 591, 2-chloro-4-((3-(1-(2-(dimethylamino)ethyl)-3-(trifluoromethyl)-1H-pyrazol-4-yl)imidazo[1,2-a]pyrazin-8-yl)amino)-N-methylbenzamide formate], the IC90 was 0.483 µM.

`C[C@@H](NC(=O)c1ccc(Nc2nccn3c(-c4c[nH]nc4C(F)(F)F)cnc23)cc1Cl)C(=O)N[C@H]1CCNC1` [Example 96, 2-chloro-N-[(2R)-1-oxo-1-[[(3S)-pyrrolidin-3-yl]amino]propan-2-yl]-4-[[3-[3-(trifluoromethyl)-1H-pyrazol-4-yl]imidazo[1,2-a]pyrazin-8-yl]amino]benzamide formate]: the IC90 was 1.63 µM.

In the case of `Cc1cc(Nc2nccn3c(-c4c[nH]nc4C(F)(F)F)cnc23)ccc1C(=O)N1CCN(C(=O)[C@@H]2CCNC[C@H]2O)CC1` [Example 464, formic acid; [4-[(3S,4R)-3-hydroxypiperidine-4-carbonyl]piperazin-1-yl]-[2-methyl-4-[[3-[3-(trifluoromethyl)-1H-pyrazol-4-yl]imidazo[1,2-a]pyrazin-8-yl]amino]phenyl]methanone], the IC90 worked out at 1.26 µM.

As for `CNC(=O)c1ccc(Nc2nccn3c(-c4cn(C5CCN(Cc6ccccc6)CC5)nc4C(F)(F)F)cnc23)cc1Cl` [Example 592, 4-((3-(1-(1-benzylpiperidin-4-yl)-3-(trifluoromethyl)-1H-pyrazol-4-yl)imidazo[1,2-a]pyrazin-8-yl)amino)-2-chloro-N-methylbenzamide formate], the IC90 was determined as 0.402 µM.

Regarding `C[C@@H](NC(=O)c1ccc(Nc2nccn3c(-c4c[nH]nc4C(F)(F)F)cnc23)cc1Cl)C(=O)N1CCC(N)CC1` [Example 90, N-[(2R)-1-(4-aminopiperidin-1-yl)-1-oxopropan-2-yl]-2-chloro-4-[[3-[3-(trifluoromethyl)-1H-pyrazol-4-yl]imidazo[1,2-a]pyrazin-8-yl]amino]benzamide formate], the IC90 was 0.643 µM.

Take `CCc1cc(Nc2nccn3c(-c4cn(CC#N)nc4C(F)(F)F)cnc23)ccc1C(=O)NCCNC(=O)[C@@H](C)N` [Example 625, (R)-N-(2-(2-aminopropanamido)ethyl)-4-((3-(1-(cyanomethyl)-3-(trifluoromethyl)-1H-pyrazol-4-yl)imidazo[1,2-a]pyrazin-8-yl)amino)-2-ethylbenzamide formate]: the IC90 came to 0.176 µM.

As to `CCc1cc(Nc2nccn3c(-c4cn(C5CCC5)nc4C(F)(F)F)cnc23)ccc1C(=O)NCCOCCN` [Example 273, N-[2-(2-aminoethoxy)ethyl]-4-[[3-[1-cyclobutyl-3-(trifluoromethyl)pyrazol-4-yl]imidazo[1,2-a]pyrazin-8-yl]amino]-2-ethylbenzamide formate], the IC90 came out at 0.087 µM.

Consider `CCc1cc(Nc2nccn3c(-c4cn(CC5CC5(F)F)nc4C(F)(F)F)cnc23)ccc1C(=O)NCCOCCN` (centres unmarked) [Example 277, N-[2-(2-aminoethoxy)ethyl]-4-[[3-[1-[(2,2-difluorocyclopropyl)methyl]-3-(trifluoromethyl)pyrazol-4-yl]imidazo[1,2-a]pyrazin-8-yl]amino]-2-ethylbenzamide formate], for which the IC90 was 0.186 µM.

Consider `Cc1cc(Nc2nccn3c(-c4cn(CC#N)nc4C(F)(F)F)cnc23)ccc1C(=O)N1CCN(C(=O)[C@@H]2C[C@](C)(O)CN2)CC1` [Example 424, formic acid; 2-[4-[8-[4-[4-[(2S,4S)-4-hydroxy-4-methylpyrrolidine-2-carbonyl]piperazine-1-carbonyl]-3-methylanilino]imidazo[1,2-a]pyrazin-3-yl]-3-(trifluoromethyl)pyrazol-1-yl]acetonitrile], for which the IC90 came to 0.685 µM.

Turning to `CCc1cc(Nc2nccn3c(-c4cn(CC(F)F)nc4C(F)(F)F)cnc23)ccc1C(=O)NCC(=O)N1CCNC(C)C1` (centres unmarked) [Example 545, 4-[[3-[1-(2,2-difluoroethyl)-3-(trifluoromethyl)pyrazol-4-yl]imidazo[1,2-a]pyrazin-8-yl]amino]-2-ethyl-N-[2-(3-methylpiperazin-1-yl)-2-oxo-ethyl]benzamide formate], the IC90 was 0.306 µM.

The assay is the same for the next values; noted with them: Acinetobacter baumannii, ATCC17961, 16 h, strain ATCC 17961, OD600 growth over 16 h, read-out: A. baumannii ATCC 17961 IC90.
`CCc1cc(Nc2nccn3c(-c4cn(CC(N)=O)nc4C(F)(F)F)cnc23)ccc1C(=O)NCCCNC(=O)[C@@H]1CCCN1` [Example 789, (S)-N-(3-(4-((3-(1-(2-amino-2-oxoethyl)-3-(trifluoromethyl)-1H-pyrazol-4-yl)imidazo [1,2-a]pyrazin-8-yl)amino)-2-ethylbenzamido)propyl)pyrrolidine-2-carboxamide]: the IC90 turned out to be 1.61 µM.

Consider `N#CCn1cc(-c2cnc3c(Nc4ccc(C(=O)N5CC(NC(=O)[C@@H]6C[C@@H](O)CN6)C5)c(Cl)c4)nccn23)c(C(F)(F)F)n1` [Example 173, (2S,4R)-N-[1-[2-chloro-4-[[3-[1-(cyanomethyl)-3-(trifluoromethyl)pyrazol-4-yl]imidazo[1,2-a]pyrazin-8-yl]amino]benzoyl]azetidin-3-yl]-4-hydroxypyrrolidine-2-carboxamide], for which the IC90 was determined as 1.11 µM.

Take `O=C(NC1CN(C(=O)c2ccc(Nc3nccn4c(-c5c[nH]nc5C(F)(F)F)cnc34)cc2Cl)C1)N[C@@H]1CCNC1` [Example 168, 1-[1-[2-chloro-4-[[3-[3-(trifluoromethyl)-1H-pyrazol-4-yl]imidazo[1,2-a]pyrazin-8-yl]amino]benzoyl]azetidin-3-yl]-3-[(3R)-pyrrolidin-3-yl]urea]: the IC90 was 0.369 µM.

On to `Cc1cc(Nc2nccn3c(-c4cn(CC(F)F)nc4C(F)(F)F)cnc23)cc(F)c1C(=O)N[C@H](C)CNC(=O)[C@H]1[C@@H]2CNC[C@@H]21` [Example 653, (1R,5S,6r)-N-((R)-2-(4-((3-(1-(2,2-difluoroethyl)-3-(trifluoromethyl)-1H-pyrazol-4-yl)imidazo [1,2-a]pyrazin-8-yl)amino)-2-fluoro-6-methylbenzamido)propyl)-3-azabicyclo[3.1.0]hexane-6-carboxamide], for which the IC90 was 0.259 µM.

`N#CCn1cc(-c2cnc3c(Nc4ccc(C(=O)NCCNCC(=O)N[C@H]5CCNC5)c(Cl)c4)nccn23)c(C(F)(F)F)n1` [Example 817, (S)-2-chloro-4-((3-(1-(cyanomethyl)-3-(trifluoromethyl)-1H-pyrazol-4-yl)imidazo[1,2-a]pyrazin-8-yl)amino)-N-(2-((2-oxo-2-(pyrrolidin-3-ylamino)ethyl)amino)ethyl) benzamide formate]: the IC90 worked out at 0.18 µM.

As for `CCc1cc(Nc2nccn3c(-c4cn(CC#N)nc4C(F)(F)F)cnc23)ccc1C(=O)NCC#N` [Example 251, N-(cyanomethyl)-4-[[3-[1-(cyanomethyl)-3-(trifluoromethyl)pyrazol-4-yl]imidazo[1,2-a]pyrazin-8-yl]amino]-2-ethylbenzamide], the IC90 is 0.136 µM.

`N#CCn1cc(-c2cnc3c(Nc4ccc(C(=O)NCC(=O)NC5CC(N)C5)c(Cl)c4)nccn23)c(C(F)(F)F)n1` (centres unmarked) [Example 660, N-[2-[(3-aminocyclobutyl)amino]-2-oxo-ethyl]-2-chloro-4-[[3-[1-(cyanomethyl)-3-(trifluoromethyl)pyrazol-4-yl]imidazo[1,2-a]pyrazin-8-yl]amino] benzamide formate]: the IC90 amounted to 0.277 µM.

As for `CCc1cc(Nc2nccn3c(-c4c[nH]nc4C(F)(F)F)cnc23)ccc1C(=O)NCCCN` [Example 365, N-(3-aminopropyl)-2-ethyl-4-[[3-[3-(trifluoromethyl)-1H-pyrazol-4-yl]imidazo[1,2-a]pyrazin-8-yl]amino]benzamide hydrochloride], the IC90 was 1.4 µM.

On to `Cc1cc(Nc2nccn3c(-c4cn(CC(F)F)nc4C(F)(F)F)cnc23)cc(F)c1C(=O)N1CCN(C(=O)C2CCNCC2)CC1` [Example 707, (4-(4-((3-(1-(2,2-difluoroethyl)-3-(trifluoromethyl)-1H-pyrazol-4-yl)imidazo[1,2-a]pyrazin-8-yl)amino)-2-fluoro-6-methylbenzoyl)piperazin-1-yl)(piperidin-4-yl) methanone], for which the IC90 was 0.395 µM.

For `CCc1cc(Nc2nccn3c(-c4cn(CC(O)CC)nc4C(F)(F)F)cnc23)ccc1C(=O)NCCOCCN` (centres unmarked) [Example 268, N-[2-(2-aminoethoxy)ethyl]-2-ethyl-4-[[3-[1-(2-hydroxybutyl)-3-(trifluoromethyl)pyrazol-4-yl]imidazo[1,2-a]pyrazin-8-yl]amino]benzamide], the IC90 was 0.346 µM.

Consider `C=CCn1cc(-c2cnc3c(Nc4ccc(C(=O)N5CCN(C(=O)C6CCNCC6)CC5)c(CC)c4)nccn23)c(C(F)(F)F)n1` [Example 64, [2-ethyl-4-[[3-[1-prop-2-enyl-3-(trifluoromethyl)pyrazol-4-yl]imidazo[1,2-a]pyrazin-8-yl]amino]phenyl]-[4-(piperidine-4-carbonyl)piperazin-1-yl]methanone], for which the IC90 stood at 0.306 µM.

Staying with this assay, now noted: strain ATCC 17961, OD600 growth over 16 h, read-out: A. baumannii ATCC 17961 IC90.
Regarding `NC1CCC(NC(=O)N2CCN(C(=O)c3ccc(Nc4nccn5c(-c6c[nH]nc6C(F)(F)F)cnc45)cc3Cl)CC2)CC1` (centres unmarked) [Example 291, N-(4-aminocyclohexyl)-4-[2-chloro-4-[[3-[3-(trifluoromethyl)-1H-pyrazol-4-yl]imidazo[1,2-a]pyrazin-8-yl]amino]benzoyl] piperazine-1-carboxamide formate], the IC90 was determined as 0.332 µM.

As for `N#CCn1cc(-c2cnc3c(Nc4ccc(C(=O)N5CCN(C(=O)N6CC[C@@H](N)C6)CC5)c(Cl)c4)nccn23)c(C(F)(F)F)n1` [Example 179, 2-[4-[8-4-[4-[(3R)-3-aminopyrrolidine-1-carbonyl]piperazine-1-carbonyl]-3-chloroanilino]imidazo[1,2-a]pyrazin-3-yl]-3-(trifluoromethyl) pyrazol-1-yl]acetonitrile formate], the IC90 is 0.181 µM.

For the origin of these results see patent publication US20230203043A1, “NOVEL IMIDAZOPYRAZINE DERIVATIVES” (Hoffmann-La Roche Inc., priority 2020, published 2023).
